Measured values taken from PMC8557901 (Microbiology Spectrum, 2021).

Tests used:
[1] = system: P. falciparum F32-ART5 (artemisinin-resistant); test: Standard in vitro chemosensitivity assay (hypoxanthine uptake), F32-ART5; type: cell-based; conditions: Plasmodium falciparum, F32, 48 h, read-out: Mean EC50 ± SD
Procedure: (§1) The Plasmodium falciparum artemisinin-resistant strain F32-ART5 and its twin artemisinin-sensitive line F32-TEM ([30], [31]) were cultivated at 37°C with 5% CO2 in human red blood cells (EFS [French Blood Bank]) diluted to 2% hematocrit in RPMI 1640 medium supplemented with 5% human serum (EFS) as previously reported ([47]).
(§2) In vitro susceptibility of P. falciparum parasites was determined by using the standard hypoxanthine uptake inhibition assay as described previously ([51]) with some modifications ([52]). After D-sorbitol treatment, parasites synchronized at the ring stage were exposed for 48 h, with [^3H]hypoxanthine (Perkin Elmer, France), to a range of concentrations of the different tested compounds. […] Each result represents 3 independent experiments.

[2] = system: P. falciparum F32-ART5 and F32-TEM; test: Recrudescence assay F32-ART5 versus F32-TEM; type: cell-based, Plasmodium falciparum; conditions: 48 h drug exposure; M1 2.5 and 10 μM; artemisinin 18 μM
Procedure: as §1
A recrudescence assay was performed to evaluate the ability of the F32-ART5 parasite line to survive drug exposure in comparison to that of the F32-TEM parasite line ([30], [31]) in order to evaluate the risk of cross-resistance between artemisinin and M1. D-Sorbitol-synchronized ring-stage parasites at 3% parasitemia (2% hematocrit) were exposed to the drug for 48 h. After drug exposure, parasite cultures were washed with RPMI 1640 medium and replaced in normal drug-free culture conditions. The time to parasite recrudescence was determined as the time required to reach initial parasitemia. […] Each experiment, performed in parallel for F32-ART5 and F32-TEM cultivated under the same conditions to generate paired results, was carried out at least three times independently and data statistically analyzed.
A statistical analysis (log-rank test) was carried out on data from the recrudescence assay and the QSA using a Kaplan-Meier survival analysis considering censored data. The final event was defined as the time necessary for cultures to reach initial parasitemia. […]

[3] = system: P. falciparum F32-TEM (artemisinin-sensitive); test: Standard in vitro chemosensitivity assay (hypoxanthine uptake), F32-TEM; type: cell-based; conditions: Plasmodium falciparum, F32, 48 h, read-out: Mean EC50 ± SD
Procedure: as §1, §2

## C[C@@H]1CC[C@H]2[C@@H](C)C(=O)O[C@@H]3O[C@@]4(C)CC[C@@H]1[C@]32OO4 [Artemisinin, reference compound]
[1]
  EC50: 11 ± 0.5 nM
[2]
  recrudescence of F32-ART5 versus F32-TEM (cross-resistance with artemisinin): faster recrudescence for F32-ART5 than for F32-TEM
[3]
  EC50: 11.1 ± 1.6 nM
